Experiments:
[1] = test system: human TARS; assay: GTPase (GTP hydrolysis) assay; type: biochemical; conditions: 10 μM compound
[2] = test system: chorioallantoic membrane (CAM); assay: Chick chorioallantoic membrane (CAM) assay; type: in vivo, chicken
Description: Chick Chorioallantoic Membrane Assay—Fertilized chicken eggs (Sunrise Farms, Catskill, N.Y.) day 1-2 post-laying were incubated in a humidified incubator at 37° C. for 72 h. Cleaned eggs were cracked and plated in a sterile 10 cm^2 tissue culture-treated dish and incubated at 37° C. for another 7 days. On developmental day 10, 1 mm sterile gelatin sponge pieces (Surgifoam®; Johnson & Johnson Wound Management, Somerville, N.J.) were placed within the outer one-third of the membrane between large vessels. 40 μg/ml human bFGF and 2 μg/ml human VEGF were used as pro-angiogenic control compounds; 100 μg/mL retinoic acid (Sigma-Aldrich, St. Louis, Mo.) diluted in phosphate-buffered saline (PBS) was used as an angiostatic control. All compounds were applied in 10 μl to the CAM every 24 h for 72 h. Images were taken using a Leica MZ6 stereomicroscope every 24 h. Compounds were scored according to a modified version of Intensity Scoring as previously described (Ribatti, Nico et al. 2006). Briefly, each experimental condition was given a blinded score from 0-5 based on the change in the extent of vessel convergence and formation in proximity to the sponge from day 0 to day 3. Total score is averaged individual experimental condition scores from at least 15 replicates.
Fertilized chicken embryos were cultured ex-ova and, starting at developmental day 10, agents were applied daily to gelfoam sponges on the CAM. Images were recorded daily over 72 h and scored blindly according to a modified version Intensity Scoring as previously described (Ribatti, Nico, 2006). Additional details regarding methods are provided in the Methods and Materials section of Example 1.

[3] = test system: Human umbilical vein endothelial cells (HUVECs); assay: In vitro endothelial tube formation assay; type: cell-based
Description: In vitro Tube Formation Assay—Tube formation assays were performed as described (Arnaoutova and Kleinman 2010; Cassavaugh, Hale et al., 201). Human Umbilical Vein Endothelial Cells (HUVECs) were seeded in 48-well plates (1.5×10^4 cells/well) coated with 100 μl of Matrigel™ Basement Membrane Matrix Growth Factor Reduced (BD Biosciences, San Jose, Calif.) and incubated in Clonetics® EGM®-2 complete media (Lonza, Annandale, N.J.) or EGM®-2 with reduced serum (0.2% fetal bovine serum). Cells were incubated at 37° C. for 6 h then fixed in 10% formalin. Fixed samples were imaged by phase-contrast microscopy or stained with Oregon Green 488 Phalloidin (Molecular Probes, Eugene, Oreg.) then imaged with fluorescence microscopy (2× objective). Number of tubes and tube lengths (in pixels) were quantified using the Simple Neurite Tracer (Longair, Baker et al. 2011) plug-in on ImageJ software (NIH). Statistical analysis of one-way ANOVA was performed with GraphPad Software. Multiple comparisons were performed using the Tukey Test.

[4] = test system: HUVECs; assay: Endothelial cell proliferation assay (alamarBlue); type: cell-based, Human
Description: Endothelial Cell Proliferation Assay—The […] alamarBlue® (Invitrogen) reagent was used to assess cell proliferation (Ahmed, Gogal et al. 1994). HUVECs were seeded in a 96-well dish (1×10^3 cells/well) and grown for 48 h in EGM®-2 media. Cells were incubated in 0.2% FBS EGM®-2 media or EGM®-2 complete media as indicated; VEGF (50 ng/ml) and media alone served as controls. After 48 h, 72 h, or 96 h in culture, 10 μl/well premixed alamarBlue® (Invitrogen) was added and after 3 h at 37° C. the amount of reduced alamarBlue® was quantified by fluorescence (excitation at 530 nm, emission at 590 nm) on a microplate reader (Synergy™ HT, BioTek, Winooski, Vt.).

[5] = test system: SK-OV3 ovarian cancer cells; assay: HIF-1α stabilization in hypoxia (Western blot); type: cell-based, Human
Description: Co-Immunoprecipitation—Plasmids expressing biotinylatable TARS (pTARS) and myc-tagged VHL (pVHL) were transfected into HEK293 cells, and then extracts were prepared. Biotin-TARS was precipitated using streptavidin-coupled beads. Myc-VHL was precipitated using anti-myc antibodies. Precipitates were separated by SDS-PAGE, transferred and blots probed with anti-TARS antibody or anti-myc (VHL) antibody. Western blot—After treatments, cells were harvested into sample buffer containing: 0.2 M Tris-HCL, 4% SDS, 4% β-mercaptoethanol, 40% glycerol, 4 μM pyronin Y. Extracts were sheared through a 24-gauge syringe. Samples were separated by 10% SDS-PAGE and transferred to nitrocellulose membrane and probed with rabbit polyclonal anti-TARS (1:500; Santa Cruz Biotechnology, Dallas, Tex.) or monoclonal anti-HIF-1α (BD Transduction Laboratories, [BD Biosciences, San Jose, Calif.]) (Lounsbury, Beddow et al., 1994). […] Major bands and their empty vector counterparts were detected using SilverSNAP Stain Kit II (Pierce) and excised. […] Peptides were analyzed by electospray ionization (ESI) liquid chromatography mass spectrometry (LC-MS). […] Spectra were obtained using collision-induced dissociation with an LTQ linear quadrupole ion trap-Orbitrap mass spectrometer (Thermo Electro, San Jose, Calif.) and analyzed using SEQUEST (Bioworks software package, version 3.3.1; Thermo Electron, San Jose, Calif.). […]

[6] = test system: HUVECs; assay: TARS mRNA by quantitative RT-PCR; type: cell-based, Human; conditions: HUVECs exposed to 50 ng/ml
Description: Quantitative RT-PCR—Total RNA was extracted from cells using the RNeasy column protocol and cDNA was generated using an Omniscript reverse transcriptase assay according to the manufacturer's instructions (Qiagen, Frederick, Md.). Primers and probes for TARS and β2-microglobulin were Assays-on-Demand (Applied Biosystems, [Life Technologies, Carlsbad, Calif.]). RT-qPCR was performed using an ABI prism 7700 Sequence Detection System (Applied Biosystems). The relative quantity of mRNA level was determined using the comparative CT (ΔΔCT) method using β2-microglobulin to normalize mRNA level (Cassavaugh, Hale et al. 2011).

[7] = test system: HUVECs; assay: VEGF secretion by ELISA; type: cell-based, Human; conditions: purified recombinant TARS added to cell media, 24 h
Description: ELISA and Lactate Dehydrogenase Assays—Confluent HUVEC cultures (passage 4) were incubated at 37° C. in Clonetics® EGM®-2 modified with 0.2% fetal bovine serum with the addition of 50 ng/ml human VEGF or 50 ng/ml human TNF-α for 6 h as indicated. Culture media supernatants were tested for levels of secreted TARS protein using the Threonyl tRNA Synthetase (TARS) ELISA Kit (USCN Life Science, Wuhan, Hubei, PRC) according to manufacturer's instructions. Cell membrane integrity was confirmed using the lactate dehydrogenase assay CytoTox-ONE™ Homogeneous Membrane Integrity Assay (Promega, Madison, Wis.) according to manufacturer's instructions and reported as percent cytotoxicity relative to a lysis control. Levels of secreted VEGF were measured using the Human VEGF ELISA kit (Thermo Scientific) per manufacturer's instructions.

C[C@@H]1C[C@H](C)C[C@H](C)[C@@H](O)CC(=O)O[C@H]([C@@H]2CC[C@H]2C(=O)O)C/C=C/C=C(/C#N)[C@H](O)[C@@H](C)C1 [BC194, reference compound]
change in TARS GTPase activity upon treatment [1]: no observable change
CAM vessel formation with inhibitor ([2]; daily application to gel sponge, basal level and after stimulation with bFGF or VEGF): inhibited vessel formation
tube length ([3]; HUVECs on Matrigel, range of BC194 concentrations, 6 h): unaffected
concentration required to affect tube formation relative to that required to detect unfolded protein response (phospho-eIF2a) and apoptosis (cleaved caspase-3) ([3]; fold lower): 100 fold
effect on VEGF proliferative response ([4]; 10 nM BC194 with 50 ng/ml VEGF, low serum media): did not significantly reduce
HIF-1α transcription [5]: no change

C[C@@H]1C[C@H](C)C[C@H](C)[C@@H](O)CC(=O)O[C@H]([C@@H]2CCC[C@H]2C(=O)O)C/C=C/C=C(/C#N)[C@H](O)[C@@H](C)C1 [borrelidin, reference compound]
change in TARS GTPase activity upon treatment [1]: no observable change
HIF-1α transcription [5]: no change

TNF-α
TARS transcription (TARS mRNA) [6]: do not induce TARS transcription

VEGF
TARS transcription (TARS mRNA) [6]: do not induce TARS transcription

B1: TARS: N-terminal His6-tagged human threonyl-tRNA synthetase expressed and purified from E. coli (protein, UniProt P26639 1-723, looked up)
Threonine--tRNA ligase 1, …: MFEEKASSPSGKMGGEEKPIGAGEEKQKEGGKKKNKEGSGDGGRAELNPWPEYIYTRLEMYNILKAEHDSILAEKAEKDSKPIKVTLPDGKQVDAESWKTTPYQIACGISQGLADNTVIAKVNNVVWDLDRPLEEDCTLELLKFEDEEAQAVYWHSSAHIMGEAMERVYGGCLCYGPPIENGFYYDMYLEEGGVSSNDFSSLEALCKKIIKEKQAFERLEVKKETLLAMFKYNKFKCRILNEKVNTPTTTVYRCGPLIDLCRGPHVRHTGKIKALKIHKNSSTYWEGKADMETLQRIYGISFPDPKMLKEWEKFQEEAKNRDHRKIGRDQELYFFHELSPGSCFFLPKGAYIYNALIEFIRSEYRKRGFQEVVTPNIFNSRLWMTSGHWQHYSENMFSFEVEKELFALKPMNCPGHCLMFDHRPRSWRELPLRLADFGVLHRNELSGALTGLTRVRRFQQDDAHIFCAMEQIEDEIKGCLDFLRTVYSVFGFSFKLNLSTRPEKFLGDIEVWDQAEKQLENSLNEFGEKWELNSGDGAFYGPKIDIQIKDAIGRYHQCATIQLDFQLPIRFNLTYVSHDGDDKKRPVIVHRAILGSVERMIAILTENYGGKWPFWLSPRQVMVVPVGPTCDEYAQKVRQQFHDAKFMADIDLDPGCTLNKKIRNAQLAQYNFILVVGEKEKISGTVNIRTRDNKVHGERTISETIERLQQLKEFRSKQAEEEF
modifications: N-terminal His6 tag
notes: N-terminal His6-tagged human threonyl-tRNA synthetase expressed and purified from E. coli
sensitivity of the protein's CAM angiogenic effect to BC194 ([2]; protein co-applied with BC194): sensitive to BC194
CAM vessel formation / vascularization on application of protein ([2]; purified protein applied daily to sponge on CAM, 72 h): stimulated vessel formation
number of tube branches on addition of protein ([3]; 100 nM purified recombinant protein in low-serum media (0.2% FBS), 6 h): significantly increased the number of tube branches
cell proliferation with protein ([4]; HUVECs in low serum (0.2% FBS) media): did not exert a significant effect
secretion of VEGF (ELISA) [7]: did not induce secretion of VEGF

Reference: US11719696B2, “Methods and compounds for diagnosing threonyl-tRNA synthetase-associated diseases and conditions” (The University of Vermont and State Agricultural College, priority 2012, dated 2023)
